Entries after “also recorded” stand apart in the source; their conditions may differ.
Tests used:
ODN = experiment: Complex formation between CBS and ODN (agarose gel electrophoresis); assay type: binding; conditions: 3% agarose gel, RPMI, excess positive charge (+/−) 2/1 and higher
Text: The oligonucleotidic sequences used were antisense sequences (complementary) directed against HIV RNA. The length varied from 15 to 28 bases, being of phosphorothioate nature. The specific ODN used and their sequences are shown below in Table 1.
Several of the ODN were used fluorescent at the 5′ end. This is indicated by adding the letter F to its notation. Thus, “GF” makes reference to the fluorescent anti-gag ODN at end 5′, whilst “RF” makes reference to the anti-Rev ODN fluorescent at end 5′.
Different agarose concentrations were used to show the migration of the ODN and the dendriplexes, bearing in mind the small size of the ODN used. Finally, a 3% agarose concentration in TAE 1× was chosen as the best. The migration of non-fluorescent ODNs was compared with fluorescent ones, both migrating at the same height but the latter increasing the signal perceived considerably. Using them, it thus avoided the isotopic labelling of the ODN. A double well was manufactured to prepare these gels, to permit load volumes of 60 μl, of which 50 μl was mixture volume of the samples in RPMI and 10 μl load buffer with glycerol. As size marker, a ladder of 100 base pairs was used (Gibco BRL®).
For the complex formations in all the tests performed, both on gels and on cells the ratio between the number of positive and negative charges in said complex was taken. As published by different authors in studies with PAMAM dendrimers, it is necessary that the complex formed has an excess positive charge to facilitate its binding to the cell membrane glycoproteins, negatively charged, thus starting the endocytosis process. Likewise, an excess of positive charge is added to ensure the formation of the dendrimer-DNA complex. Therefore, the complexes between the CBS dendrimers and the different nucleic acids were formed in excess number of positive charges (provided by the CBS) compared with negative charges (provided by the ODN). Nevertheless, different charge ratios were tested, making the calculations based in the number of dendrimer charges (fixed) and the number of negative charges of the ODN (also fixed). The 2/1 ratio of positive/negative charges was fixed as sufficient in all dendrimers to form the complexes with a total positive charge, although in some experiments a balance was provided of an equal number of negative charges as positive charges or excess negative charges.
In all the tests, a complex formation volume of 60 μl was used, using phenol red without RPMI serum as support medium.
Tests of complex formation were used with the dendrimers of the invention IM8, ClNH4, NN, Phe and IM16.
The synthesis process of the CBS used in this work begins from an initial nucleus of common structure, which is ended functionalizing in the periphery by the use of different functional groups, which are those which provide the positive charge to the dendrimer and determine the differences between themselves, the dendrimeric nucleus being of apolar nature. Since some of the bonds of the functional groups used to the dendrimeric nucleus could be unstable in aqueous solution, tests were performed to determine if the DNA retention in agarose gels and, therefore, the complex formation between the CBS and the DNA could be due to the total dendrimer structure being conserved or in contrast, the terminal functional groups came away from the moiety of the dendrimeric core which are responsible for the DNA retention. For this, gels were used in which complexes were formed between the ODNs and the integral CBS and those formed supposedly between the ODNs and the terminal functional groups with which the carbosilane skeleton had functionalized, in this case quaternized dimethylethanolamine. As has previously been commented, those positively charged molecules, which are bound to the dendrimer as terminal functional groups, are those which give the dendrimer its charge. As control, the mixtures of ODN-dendrimers, ODN-monomers and ODN alone were compared. […]

ODN PPT = experiment: Stability of the dendriplexes at different pHs; assay type: physicochemical; conditions: dendriplexes with PPT, 2/1 charge ratio
Method: Stability studies were carried out on the complexes a different pHs, to determine how the changes in pH would affect the complex, since there are different anatomic, tissue or cell localizations in which the pH acidifies or alkalinifies. Examples are stomach ambient acid, the alkali of the pancreatic secretions of the small intestine, or at a cellular level, the endosome-lisosome behaviour, where it changes from a physiological pH (7.35-7.45) to an acid pH around 4. It is interesting to know, therefore, in what pH range the DNA complex could be maintained with the different CBS used. The complexes were formed following the habitual process and volumes were added in excess of different solutions at different pHs. Therefore, for each one of dendrimers Phe, ClNH4, NN, IM8 and IM16, according to Example 31, 7 solutions were prepared of dendriplexes formed with PPT, in a 2/1 charge ratio and with the following pHs: […]; 2.7; 4.7; 5.7; 6.4; 7.4; 8: The results produced are shown in the electrophoresis gels which appear in FIG. 4, wherein the height of the normal ODN migration band is shown with arrows in the lower part of the gels. The samples were loaded from left to right following an increasing pH order. No sample was formed in the wells indicated with an X.

[1] = test system: peripheral blood mononuclear cells (PBMC); experiment: Visual examination of PBMC incubated with dendrimers; assay type: cell-based, human; conditions: for visual examination of PBMC: 48 hours
Method: The toxicity of dendrimers IM8, IM16, ClNH4, NN, Phe and the commercial controls SF (Superfect) and G4 were tested. Different quantities were taken of each one of them so that the final concentrations with which the cells were incubated were 1 μM, 5 μM, 10 μM, 20 μM and 100 μM.
The blood came from adult donors or the umbilical cord of health newborns. Said blood was diluted ½ with PBS and it was centrifuged in a Ficoll gradient. After said centrifugation, the PBMC halo was recovered and two subsequent washing-centrifuging cycles were carried out. The resulting PBMC were resuspended in complete culture medium with 10% FCS, antibiotics and glutamine.
100 μl of 10% complete medium of foetal calf serum, antibiotics and glutamine were added to a volume of 60 μl of RPMI with the corresponding dendrimer tested. 160 μl were then added to the cells seeded in 340 μl, completing a final volume of 500 μl. The cells were incubated in this way for 48 hours and then the effect of the incubation with the dendrimers was evaluated by its visual examination and by the evaluation of the mitochondrial activity.

erythrocytes = experiment: Visual examination of erythrocytes (hemagglutination); assay type: cell-based, human
Method: A visual examination was carried out to detect the presence/absence of hemagglutination and quantification of haemoglobin release (haemolysis test) by spectrophotometry. ClNH4 was excluded from the dendrimers of previous Example 38, as the result had been more toxic for lymphocytes, and the results were compared with those produced for a PAMAN type generation 4 dendrimer.
The erythrocytes were obtained after being separated from the PBMC using the same Ficoll gradient cited in the previous Example. They were diluted in PBS to be able to view them individually. The cells were resuspended in 500 μl of PBS and were seeded in a 24-well plate (300,000/well). As positive control, cells treated with 0.2% Triton X-100 were used. Negative control: PBS (blank). The erythrocytes were incubated with different dendrimer concentrations. The presence of hemagglutination, number of cells and release of haemoglobin by hour were evaluated by collecting 100 μl of supernatant and measuring absorbencies by spectrophotometry using a plate reader at a wavelength of 550 nm and 690 nm as reference.

| Compound | complex formation with ODN (retention of DNA migration in gel) (ODN) | stability of dendrimer-ODN complex at the pHs tested (ODN PPT; pHs 2.8, 2.7, 4.7, 5.7, 6.4, 7.4, 8) | visual examination of PBMC ([1]; 1 μM) | visual examination of PBMC ([1]; 5 μM) | pH at which the dendrimer-ODN complex is labile / dissociated (ODN PPT) | order of hemagglutination from greater to lesser (erythrocytes) | Visual examination of erythrocytes incubated with dendrimers (erythrocytes; 1 μM) | Visual examination of erythrocytes incubated with dendrimers (erythrocytes; 5 μM) | Visual examination of erythrocytes incubated with dendrimers (erythrocytes; 10 μM) | Visual examination of erythrocytes incubated with dendrimers (erythrocytes; 20 μM) | visual examination of PBMC ([1]; 10 μM) | induction of hemagglutination / haemolysis (erythrocytes) | toxicity for the lymphocytes from the visual observation (comparison) [1] | biocompatibility profile, toxicity on lymphocytes and erythrocytes taken together (erythrocytes) |
| --- | --- | --- | --- | --- | --- | --- | --- | --- | --- | --- | --- | --- | --- | --- |
| C[Si](C)(CCCN)CCC[Si](C)(CCC[Si](C)(C)CCCN)CCC[Si](CCC[Si](C)(CCC[Si](C)(C)CCCN)CCC[Si](C)(C)CCCN)(CCC[Si](C)(CCC[Si](C)(C)CCCN)CCC[Si](C)(C)CCCN)CCC[Si](C)(CCC[Si](C)(C)CCCN)CCC[Si](C)(C)CCCN.Cl.Cl.Cl.Cl.Cl.Cl.Cl.Cl [ClNH4, 2G-[Si(CH2)3NH3^+Cl^−]8] | capable of retaining the DNA also with all the charge ratios evaluated | stable at all pHs tested | O.K | Aggregates + |  |  |  |  |  |  |  |  |  |  |
| C[N+](C)(C)CCO[Si](C)(C)CCC[Si](C)(CCC[Si](CCC[Si](C)(CCC[Si](C)(C)OCC[N+](C)(C)C)CCC[Si](C)(C)OCC[N+](C)(C)C)(CCC[Si](C)(CCC[Si](C)(C)OCC[N+](C)(C)C)CCC[Si](C)(C)OCC[N+](C)(C)C)CCC[Si](C)(CCC[Si](C)(C)OCC[N+](C)(C)C)CCC[Si](C)(C)OCC[N+](C)(C)C)CCC[Si](C)(C)OCC[N+](C)(C)C.[I-].[I-].[I-].[I-].[I-].[I-].[I-].[I-] [IM8, 2G-[Si(OCH2CH2NMe3^+I^−)]8] | capable of retaining the DNA; also recorded: capable of retaining the migration of all the ODN |  | O.K | O.K | < 4.7 | G4>Phe>IM16>IM8>NN | O.K | Ag+ | Ag+ | No cells |  |  |  |  |
| C[N+](C)(C)CCO[Si](C)(CCC[Si](C)(CCC[Si](CCC[Si](C)(CCC[Si](C)(OCC[N+](C)(C)C)OCC[N+](C)(C)C)CCC[Si](C)(OCC[N+](C)(C)C)OCC[N+](C)(C)C)(CCC[Si](C)(CCC[Si](C)(OCC[N+](C)(C)C)OCC[N+](C)(C)C)CCC[Si](C)(OCC[N+](C)(C)C)OCC[N+](C)(C)C)CCC[Si](C)(CCC[Si](C)(OCC[N+](C)(C)C)OCC[N+](C)(C)C)CCC[Si](C)(OCC[N+](C)(C)C)OCC[N+](C)(C)C)CCC[Si](C)(OCC[N+](C)(C)C)OCC[N+](C)(C)C)OCC[N+](C)(C)C.[I-].[I-].[I-].[I-].[I-].[I-].[I-].[I-].[I-].[I-].[I-].[I-].[I-].[I-].[I-].[I-] [IM16, 2G-[Si(OCH2CH2NMe3^+I^−)2]8] | capable of retaining the DNA |  | O.K | O.K |  | G4>Phe>IM16>IM8>NN | O.K | Ag++ |  | No cells | Cell aggregates + | induces agglutination |  |  |
| CN(CCO[Si](C)(C)CCC[Si](C)(CCC[Si](CCC[Si](C)(CCC[Si](C)(C)OCCN(C)CC[N+](C)(C)C)CCC[Si](C)(C)OCCN(C)CC[N+](C)(C)C)(CCC[Si](C)(CCC[Si](C)(C)OCCN(C)CC[N+](C)(C)C)CCC[Si](C)(C)OCCN(C)CC[N+](C)(C)C)CCC[Si](C)(CCC[Si](C)(C)OCCN(C)CC[N+](C)(C)C)CCC[Si](C)(C)OCCN(C)CC[N+](C)(C)C)CCC[Si](C)(C)OCCN(C)CC[N+](C)(C)C)CC[N+](C)(C)C.[I-].[I-].[I-].[I-].[I-].[I-].[I-].[I-] [NN, 2G-[Si(O(CH2)2N(Me)(CH2)2NMe3^+I^−)]8] | capable of forming complexes with the ODN |  | O.K | O.K |  | G4>Phe>IM16>IM8>NN | O.K | O.K | Ag+/− | No cells |  | does not | least toxic | better biocompatibility profiles |
